Laboratory results: patent US20240025863A1, “SOS1 PROTEIN DEGRADERS, PHARMACEUTICAL COMPOSITIONS THEREOF, AND THEIR THERAPEUTIC APPLICATIONS” (BioTheryX, Inc., priority 2020, published 2024)

Tests used:
Type in all cases: cell-based
SW480 cells (G12V) = assay: Cell viability assay (CellTiter-Glo), SW480 cells; settings: Homo sapiens, 72 h; SW480 cells, 3 days incubation, CellTiter-Glo luminescence; read-out: Inhibition of Cancerous Cells IC50 SW480 (G12V)
How it was run: (§1)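 Each cell line is treated with compound for 3 days at 37 °C under 5% CO2 in its own medium containing 2.5% FBS. ATP-based CellTiter-Glo luminescence, measured after 10 min shaking, serves as the viability signal relative to DMSO control.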

H358 cells (G12C) = assay: Cell viability assay (CellTiter-Glo), H358 cells; settings: Homo sapiens, NCI-H358, 72 h; H358 cells, 3 days incubation, CellTiter-Glo luminescence; read-out: Inhibition of Cancerous Cells IC50 H358 (G12C)
How it was run: as §1

AsPC-1 cells (G12D) = assay: Cell viability assay (CellTiter-Glo), AsPC-1 cells; settings: Homo sapiens, ASPC1, 72 h, 3 days incubation, CellTiter-Glo luminescence, read-out: Inhibition of Cancerous Cells IC50 AsPC-1 (G12D)
Procedure: H358, H23, SW48, and AsPC-1 cells were cultured in RPMI 1640 media supplemented with 10% fetal bovine serum, streptomycin, and penicillin. Lovo and SW480 cells were cultured in DMEM media supplemented with 10% fetal bovine serum, streptomycin, and penicillin. The cell lines were plated in their respective medium supplemented with 2.5% fetal bovine serum, streptomycin, and penicillin. All cell lines were plated in white walled 96-well plates at 2,000 cells/well or 384-well plates at 500 cells/well, except Lovo, which were plated at 4,000 or 1,000 cells/well, respectively. The cells were incubated in DMSO (control) or a compound for 3 days at 37° C. under 5% CO2. A CELLTITER-GLO® reagent (100 μL) was then added to each well. After a 10 min incubation with shaking, luminescence was measured using an ENVISION® multimode plate reader.

SW48 cells (wt) = assay: Cell viability assay (CellTiter-Glo), SW48 cells; settings: Homo sapiens, 72 h; SW48 cells, 3 days incubation, CellTiter-Glo luminescence; read-out: Inhibition of Cancerous Cells IC50 SW48 (wt)
How it was run: as §1

Lovo cells (G13D) = assay: Cell viability assay (CellTiter-Glo), Lovo cells; settings: Homo sapiens, 72 h; Lovo cells, 3 days incubation, CellTiter-Glo luminescence; read-out: Inhibition of Cancerous Cells IC50 Lovo (G13D)
How it was run: as §1

Compound	IC50 (SW480 cells (G12V))	IC50 (H358 cells (G12C))	IC50 (AsPC-1 cells (G12D))	IC50 (SW48 cells (wt))	IC50 (Lovo cells (G13D))
COc1cc2c(N[C@H](C)c3cccc(Br)c3)nc(C)nc2cc1OCCN1CCN(CCN2CCC(c3cc(F)cc4c3CN(C3CCC(=O)NC3=O)C4=O)CC2)CC1 (stereo partly drawn) [Compound A66, 3-(4-(1-(2-(4-(2-((4-(((R)-1-(3-Bromophenyl)ethyl)amino)-6-methoxy-2-methyl-quinazolin-7-yl)oxy)ethyl)piperazin-1-yl)ethyl)piperidin-4-yl)-6-fluoro-1-oxoisoindolin-2-yl)piperidine-2,6-dione]	9700 nM	8000 nM	> 10000 nM	3800 nM	5800 nM
COc1cc2c(N[C@H](C)c3cccc(Br)c3)nc(C)nc2cc1OCCCCCCC(=O)N1CCC(c2cc3c(cc2F)C(=O)N(C2CCC(=O)NC2=O)C3)CC1 (stereo partly drawn) [Compound A60, 3-(5-(1-(7-((4-(((R)-1-(3-Bromophenyl)ethyl)amino)-6-methoxy-2-methyl-quinazolin-7-yl)oxy)heptanoyl)piperidin-4-yl)-6-fluoro-1-oxoisoindolin-2-yl)piperidine-2,6-dione]	4000 nM	> 10000 nM	8400 nM	3800 nM	4300 nM
COc1cc2c(N[C@@H](C)c3cc(N)cc(C(F)(F)F)c3)nc(C)nc2cc1OCCCCCCCN1CCC(c2cc3c(cc2F)C(=O)N(C2CCC(=O)NC2=O)C3)CC1 (stereo partly drawn) [Compound A68, 3-(5-(1-(7-((4-(((S)-1-(3-Amino-5-(trifluoromethyl)phenyl)ethyl)amino)-6-methoxy-2-methylquinazolin-7-yl)oxy)heptyl)piperidin-4-yl)-6-fluoro-1-oxoisoindolin-2-yl)piperidine-2,6-dione]	530 nM	690 nM	1500 nM	500 nM	630 nM
COc1cc2c(N[C@H](C)c3cccc(Br)c3)nc(C)nc2cc1OCCCCCCCCCCNc1cccc2c1CN(C1CCC(=O)NC1=O)C2=O (stereo partly drawn) [Compound A62, 3-(4-((10-((4-(((R)-1-(3-Bromophenyl)ethyl)amino)-6-methoxy-2-methyl-quinazolin-7-yl)oxy)decyl)amino)-1-oxoisoindolin-2-yl)piperidine-2,6-dione]	1300 nM	> 10000 nM	> 10000 nM	2400 nM	4000 nM
COc1cc2c(N[C@H](C)c3cccc(Br)c3)nc(C)nc2cc1OCCCCCC(=O)N(C)Cc1scc2c1CN(C1CCC(=O)NC1=O)C2=O (stereo partly drawn) [Compound A63, 6-((4-(((R)-1-(3-Bromophenyl)ethyl)amino)-6-methoxy-2-methylquinazolin-7-yl)oxy)-N-((5-(2,6-dioxopiperidin-3-yl)-4-oxo-5,6-dihydro-4H-thieno[3,4-c]pyrrol-1-yl)methyl)-N-methylhexanamide]	650 nM	130 nM	3500 nM	20 nM	< 14 nM
COc1cc2c(N[C@H](C)c3cccc(Br)c3)nc(C)nc2cc1OCCCCCN1CCN(C(=O)CNc2cc3c(cc2F)C(=O)N(C2CCC(=O)NC2=O)C3)CC1 (stereo partly drawn) [Compound A32, 3-(5-((2-(4-(5-((4-(((R)-1-(3-Bromophenyl)ethyl)amino)-6-methoxy-2-methyl-quinazolin-7-yl)oxy)pentyl)piperazin-1-yl)-2-oxoethyl)amino)-6-fluoro-1-oxoisoindolin-2-yl)-piperidine-2,6-dione]	4400 nM	> 10000 nM	> 10000 nM	470 nM	60 nM
COc1cc2c(N[C@H](C)c3cccc(Br)c3)nc(C)nc2cc1OCCCCCCN1CCN(CC#Cc2cc3c(cc2F)C(=O)N(C2CCC(=O)NC2=O)C3)CC1 (stereo partly drawn) [Compound A43, 3-(5-(3-(4-(6-((4-(((R)-1-(3-Bromophenyl)ethyl)amino)-6-methoxy-2-methyl-quinazolin-7-yl)oxy)hexyl)piperazin-1-yl)prop-1-yn-1-yl)-6-fluoro-1-oxoisoindolin-2-yl)-piperidine-2,6-dione]	440 nM	1300 nM	830 nM	620 nM	340 nM
COc1cc2c(N[C@H](C)c3cccc(Br)c3)nc(C)nc2cc1OCCCN1CCC2(CC1)CCN(c1cc3c(cc1F)C(=O)N(C1CCC(=O)NC1=O)C3)CC2 (stereo partly drawn) [Compound A44, 3-(5-(9-(3-((4-(((R)-1-(3-Bromophenyl)ethyl)amino)-6-methoxy-2-methyl-quinazolin-7-yl)oxy)propyl)-3,9-diazaspiro[5.5]undecan-3-yl)-6-fluoro-1-oxoisoindolin-2-yl)piperidine-2,6-dione]	440 nM	1200 nM	980 nM	610 nM	530 nM
